Assays:
[1] = tested on: Maillard reaction in-vitro (BSA, ribose); experiment: Test for AGE inhibiting activity (Maillard reaction in-vitro, BSA + ribose, fluorescence); format: biochemical, bovine; details: 37° C., 7 days
Description: The following method was used to determine the inhibitory effect of the test compounds on Maillard reaction in-vitro. This method is adopted from U.S. Pat. No. 5,514,676 and European Patent No. 0 339 496 A2.
A solution of Bovine Serum Albumin (BSA), ribose and test compound was prepared in Phosphate Buffer Saline (PBS, pH 7.4) so as to have final concentration of BSA and ribose at 10 mg/ml and 500 mM respectively. Addition of compound was done in aseptic conditions. Sodium azide (0.02%) was also added in this solution in order to prevent microbial growth. A separate tube containing BSA, ribose and sodium azide in the same concentration and buffer as above, but without any test compound, was also incubated as positive control. After incubation at 37° C. for 7 days, 40 micro liter sample from each tube was removed and diluted with PBS to have final concentration of BSA at 1 mg/ml. The fluorescence of all the samples was measured at Excitation Maximum of […] and the Emission Maximum of […] using f-MAX Fluorimeter (Molecular Device, USA). In order to study the effect of test compound on fluorescence, freshly prepared compound solution was mixed with previously incubated positive control (i.e. BSA+ribose), so as to achieve same concentration of all the components as that of test samples.
The percent inhibition of test compound was measured as follows:
[formula] Where F3=Fluorescence of BSA+ribose+compound, F4 is fluorescence of incubated (BSA+ribose)+freshly added test compound.

[2] = Free radical scavenging activity on ABTS radical cation; format: biochemical
Description: This method measures the relative ability of free radical scavenging substances to scavenge the ABTS.^+ i.e. 2,2-Azino-bis-(3-ethyl benzo thiazoline-6-sulfonate) radical cation as compared to a standard amount of standard or free radical scavengers antioxidants. Incubation of ABTS with Peroxidase (metmyoglobin) and hydrogen peroxide results in the production of radical cation ABTS.^+. This species is blue-green in colour and can be detected at 730 nm. Antioxidants or free radical scavengers in the added sample that causes suppression of the color to a degree that is proportional to their concentration.
Preparation of Buffer Solutions: • a. Phosphate Citrate Buffer (pH 5.0): 48.5 ml of 0.1M citric acid with sufficient 0.2M disodium hydrogen phosphate to produce 100 ml. • b. Phosphate Buffer Saline (PBS): Dissolve 40.0 g of NaCl, 1.0 g of KCl, 1.0 g of KH2PO4 and 3.05 g of Na2HPO4 in 1 liter milli-Q water. Dilute 200 ml of above solution to 1 liter with milli-Q water (pH 7.4–7.6).
Preparation of ABTS Stock Solution (2 mM): • 1 tablet (10 mg) was dissolved in phosphate citrate buffer (pH 5.0) to give a 2 mM solution.
Preparation of Horse Radish Peroxidase Working Solution: • 0.1 mg was dissolved in 10 ml of phosphate buffer saline, 1 ml of this solution was diluted to 100 ml with PBS.
Preparation of Hydrogen Peroxide (1.08 mM) Solution: • 12 μl of Hydrogen Peroxide (30% w/v) was diluted to 100 ml with PBS.
Preparation of Drug Solutions: • 0.1 mM of stock solution of the drug was prepared which was serially diluted in PBS to get 0.05 mM, 0.025 mM and 0.0125 mM solutions.
Preparation of ABTS Radical Stock Solution: • To 2 ml of ABTS stock solution, 1 ml of horseradish Peroxidase working solution was added. • As soon as 2 ml of Hydrogen peroxide solution was added to the above solution, blue-green colour of the ABTS radicals appeared. This solution was incubated at 30° C. for 30 min in order to ensure the completion reaction. Make up the volume to 10 ml with PBS.
Preparation of Control Solution: • 900 μl of ABTS radical stock solution were added to an eppendorf tube. To it were added 100 μl of PBS solution.
Preparation of Test Solution: • 900 μl of ABTS radical stock solutions were added to different eppendorf tubes. To it were added 100 μl of various concentrations of drug solution.
Measurement of Absorbance (O.D): • The absorbance of control and test samples was recorded immediately at 730 nm taking PBS as blank.
Calculation: • The percent antioxidant activity was calculated according to the formula: % Antioxidant activity=100−[O.D of test sample/O.D of control×100]

AGE-BSA = target: T1, AGE-BSA (Bos taurus, UniProt P02769); experiment: In-vitro screening for AGE-breaking activity (AGE-BSA incubated with compound; ELISA / gel permeation chromatography); format: biochemical, bovine; details: 37° C., 24 hours
T1 construct: Bovine serum albumin (fraction V) (BSA); from tissue; host or cells: bovine serum (fraction V); own knowledge: fraction V is the albumin fraction of plasma/serum
T1 sequence (P02769 25-607): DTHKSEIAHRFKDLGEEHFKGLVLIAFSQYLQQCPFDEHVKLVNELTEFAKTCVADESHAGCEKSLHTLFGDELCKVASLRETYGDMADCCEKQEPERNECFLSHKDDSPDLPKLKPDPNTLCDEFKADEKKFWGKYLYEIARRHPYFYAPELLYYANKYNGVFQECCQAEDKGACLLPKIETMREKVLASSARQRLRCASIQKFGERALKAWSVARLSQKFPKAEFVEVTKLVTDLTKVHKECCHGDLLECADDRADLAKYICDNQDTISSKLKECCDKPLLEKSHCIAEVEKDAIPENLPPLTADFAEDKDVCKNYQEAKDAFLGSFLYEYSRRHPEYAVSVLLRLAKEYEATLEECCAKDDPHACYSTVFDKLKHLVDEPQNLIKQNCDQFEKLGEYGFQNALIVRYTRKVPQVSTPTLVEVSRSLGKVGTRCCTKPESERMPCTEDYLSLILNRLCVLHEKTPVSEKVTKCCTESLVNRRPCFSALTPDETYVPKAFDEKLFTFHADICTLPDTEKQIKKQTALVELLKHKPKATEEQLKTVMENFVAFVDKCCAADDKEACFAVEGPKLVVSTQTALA
Description: Fluorescence was used as the criteria to monitor the increased AGE formation.
160 mg/ml of protein, bovine serum albumin, BSA and 1.6M glucose sugar were dissolved in phosphate buffered saline, PBS. Sodium azide was added at 0.02% concentration as a preservative. The solution was filtered asceptically through a […] filter and kept for aging at 37° C. for 16 weeks. After 16 weeks the solution was dialyzed against PBS, aliquoted and stored at −20° C.
To determine the AGE breaking activity, 10 μg/ml of the 16 weeks AGE-BSA was incubated with different concentrations of the test compounds at 37° C. for 24 hours and AGE breaking activity of the test compounds by ELISA was determined.
• 1. Different concentrations of 16 weeks AGE-BSA were coated on a microtiter plate as standard. Each concentration is coated in triplicates. • 2. The test samples were coated on microtiter plate at a concentration of 5 ng. to 20 ng per well in triplicates. • 3. The plate was incubated at 37° C. for one hour. • 4. After incubation the plate was washed with PBST (PBS with 0.05% Tween 20). • 5. Blocking with 5% skimmed milk in PBS at 37° C. for one hour was done. • 6. The plate was washed with PBST. • 7. Primary antibody against AGE-BSA was added and the plate is incubated at 37° C. for one hour. • 8. The plate was washed with PBST. • 9. Secondary antibody anti rabbit HRPO (Horse-Radish Per Oxidase) conjugate was added and the plate is incubated at 37° C. for one hour. • 10. The plate was washed with PBST. • 11. Colour development with OPD (orthophenylenediamine dihydrochloride) and hydrogen peroxide was done. • 12. OD (optical density) at (450 nm reading –620 nm reading) was measured after incubation at 37° C. for 15 minutes with Microplate ELISA Reader.
The breaker activity of the compounds were determined by the following formula:
[formula] OD450-620Control=Absorbance of 20 ng AGE-BSA after incubation at 37° C. for 24 hours without test compound. OD450-620Test=Absorbance of 20 ng AGE-BSA after incubation at 37° C. for 24 hours with required concentration of test compound.
Gel Permeation Chromatography based method was used to determine AGE breaking activities of the compounds.
Separation by Gel Permeation Chromatography (GPC) depends on differences in the size, more precisely the hydrodynamic volume, of the proteins in a sample. […] The pores of a column particle are differentially accessible to smaller particles, depending on their size. This volume of the column is called (V1). The total accessible volume (Vt) is the sum of the volume outside the particles (V0) and the volume accessible inside the particles (V1): Vt=V0+Vi Therefore, in a typical Gel Permeation Chromatography (GPC) run, high molecular weight molecules elute at a lower retention time whereas lower molecular weight molecules are retained for longer time. For the purpose of quantification, the area under the curve for the respective molecule is recorded. The same principle has been applied in the in vitro screening of the molecules of instant invention. Highly cross-linked Advanced Glycosylated Endproducts (AGE) were prepared in vitro by incubating Bovine Serum Albumin (BSA) with glucose for a period of 16 weeks. […] The reduction in the area of AGE-BSA incubated in the presence of AGE breaker as compared to that of control AGE BSA (incubated in absence of AGE breaker) gives an estimate of the AGE breaker activity of the drug. In order to check the non-specific activity of the molecule, a similar experiment was repeated with BSA as well. Methodology:
A known concentration of 16-week AGE-BSA was incubated with and without a predetermined concentration of the drug at 37° C. for 24 hours in clean transparent glass test tubes. The solution without drug served as the control and the solution containing the drug was treated as the test sample.
Gel permeation chromatography was performed on equal volumes of control AGE-BSA preparation and solution of AGE-BSA treated with drug. […]

Structure (SMILES)	% Inhibition (Day 7) ([1]; 5 mM compound) [%]	Relative Free Radical Scavenging Activity (%) on ABTS ([2]; 12.5 μM) [%]	Relative Free Radical Scavenging Activity (%) on ABTS ([2]; 25.0 μM) [%]	Relative Free Radical Scavenging Activity (%) on ABTS ([2]; 50.0 μM) [%]	Relative Free Radical Scavenging Activity (%) on ABTS ([2]; 100.0 μM) [%]	% Breakage (AGE-BSA; 10 mM compound) [%]	% Inhibition (Day 7) ([1]; 10 mM compound) [%]	% Inhibition (Day 7) ([1]; 1.25 mM compound) [%]	% Breakage (AGE-BSA; 5 mM compound) [%]	% Inhibition (Day 7) ([1]; 2.5 mM compound) [%]
O=C(C[n+]1cccc(-c2cc(Cc3ccccc3)nn2-c2ccccc2)c1)c1ccccc1.[Cl-] [Compound 19, 1-(2-Phenyl-2-oxoethyl)-3-[(1-phenyl-3-phenylmethyl)pyrazol-5-yl]pyridinium chloride]	64.23	8.37	19.42	37.62	55.18	91.22				
Cc1cc(C)n(Cc2cc(-c3ccc[n+](CC(=O)c4cccs4)c3)n(-c3ccccc3)n2)n1.[Cl-] [Compound 13]		23.58	41.78	64.01	82.54	81.05	57			
Cc1cc(C)n(Cc2cc(-c3ccc[n+](CC(=O)c4ccccc4)c3)n(-c3ccccc3)n2)n1.[Br-] [Compound 26]	61.45	21.18	34.22	41.66	75.27	42.37				
O=C(C[n+]1cccc(-c2cc(COc3ccccc3)n[nH]2)c1)c1cccs1.[Cl-] [Compound 24, 1-(2-Thien-2′-yl-2-oxoethyl)-3-[(3-phenoxymethyl)pyrazol-5-yl]pyridinium chloride]	82.5	43.66	74.64	83.24	90.12	97.72				
O=C(C[n+]1cccc(-c2cc(Cc3ccccc3)nn2-c2ccccc2)c1)c1cccs1.[Cl-] [Compound 11, 1-(2-Thien-2′-yl-2-oxoethyl)-3-[(1-phenyl-3-phenylmethyl)pyrazol-5-yl]-pyridinium chloride]		26.78	45.74	70.61	86.46			32.9	76.84	
Cc1cc(C)n(Cc2cc(-c3ccc[n+](CC(=O)c4ccc(C)s4)c3)[nH]n2)n1.[Cl-] [Compound 18, 1-(2-(5-Methyl-2-thienyl)-2-oxoethyl)-3-[(3,-(3,5-dimethylpyrazol-1-yl)methyl)pyrazol-5-yl]pyridinium chloride]	79	28.65	53.8	84.41	95.32				52.97	
O=C(C[n+]1cccc(-c2cc(COc3ccccc3)nn2-c2ccccc2)c1)c1cccs1.[Cl-] [Compound 29, 1-(2-Thien-2′-yl-2-oxoethyl)-3-[(1-phenyl-3-phenoxymethyl)pyrazol-5-yl]pyridinium chloride]	55.22	31.82	46.84	58.84	55.22					
Cc1cc(C)n(Cc2cc(-c3ccc[n+](CC(=O)c4cccs4)c3)n(-c3ccccn3)n2)n1.[Br-] [Compound 6, 1-(2-Thien-2′-yl-2-oxoethyl)-3-[3{(3,5-dimethylpyrazol-1-yl)methyl-1-(2-pyridyl)}pyrazol-5-yl]pyridinium bromide]		21.99	40.56	61.68	81.04		66			
O=C(C[n+]1cccc(-c2cc(-c3ccc[n+](CC(=O)c4cccs4)c3)[nH]n2)c1)c1cccs1.[Br-].[Br-] [Compound 10, 3,5-Bis-[1-(2-thien-2′-yl-2-oxoethyl)-pyridinium-3-yl]-pyrazole dibromide]		41.01	72.97	85.75	87.04					75

From US7223777B2, “Compounds for the management of aging-related and diabetic vascular complications, process for their preparation, therapeutic and cosmetic uses thereof” (Torrent Pharmaceuticals Ltd., priority 2001, dated 2007)
